According to PMC10102849 (Clinical cancer research : an official journal of the …, 2023):

How the values were obtained:
JH-2-002 cells = assay type: cell-based, human; settings: 72 hours
JW23.3 cells = assay type: cell-based, murine; settings: 72 hours
MPNST-724 cells = assay type: cell-based, human; settings: 3 days
[1] = test system: JW23.3, JH-2-002, and MPNST-724 cells; assay: IncuCyte proliferation assay, range stated over three MPNST cell lines; assay type: cell-based; settings: 72 h, read-out: IC50 for inhibition of cell confluence, range over cell lines

Row | Structure (SMILES) | effect on percent cell confluence / proliferation (JH-2-002 cells) | effect on percent cell confluence / proliferation (JW23.3 cells) | effect on proliferation (MPNST-724 cells) | IC50 [1]
1 | O=C(NOC[C@H](O)CO)c1ccc(F)c(F)c1Nc1ccc(I)cc1F [mirdametinib] | dose-dependently reduced | dose-dependently reduced | dose-dependently reduced | 0.22 to 1.22 µM
2 | CCS(=O)(=O)N1CC(CC#N)(n2cc(-c3ncnc4[nH]ccc34)cn2)C1 [baricitinib] | decreased cell proliferation at higher doses | decreased cell proliferation at higher doses |  | 
